From ChEMBL document CHEMBL2429811, “Novel selective and potent inhibitors of malaria parasite dihydroorotate dehydrogenase: discovery and optimization of dihydrothiophenone derivatives” (J Med Chem, 2013)

Legend:
[1] = biological target: Dihydroorotate dehydrogenase (quinone), mitochondrial (Homo sapiens, UniProt Q02127); assay: Inhibition of N-terminal His10-tagged human DHODH (Met30 to Arg396) expressed in Escherichia coli BL21 (DE3) using dihydroorotate as substrate measured every 30 secs for 6 mins by DCIP dye-based assay
[2] = biological target: T1, Dihydroorotate dehydrogenase (Plasmodium falciparum, UniProt Q54A96); assay: Inhibition of Plasmodium falciparum DHODH (Phe158 to Ser569) expressed in Escherichia coli BL21 using dihydroorotate as substrate measured every 30 secs for 6 mins by DCIP dye-based assay
T1 sequence (Q54A96 whole entry): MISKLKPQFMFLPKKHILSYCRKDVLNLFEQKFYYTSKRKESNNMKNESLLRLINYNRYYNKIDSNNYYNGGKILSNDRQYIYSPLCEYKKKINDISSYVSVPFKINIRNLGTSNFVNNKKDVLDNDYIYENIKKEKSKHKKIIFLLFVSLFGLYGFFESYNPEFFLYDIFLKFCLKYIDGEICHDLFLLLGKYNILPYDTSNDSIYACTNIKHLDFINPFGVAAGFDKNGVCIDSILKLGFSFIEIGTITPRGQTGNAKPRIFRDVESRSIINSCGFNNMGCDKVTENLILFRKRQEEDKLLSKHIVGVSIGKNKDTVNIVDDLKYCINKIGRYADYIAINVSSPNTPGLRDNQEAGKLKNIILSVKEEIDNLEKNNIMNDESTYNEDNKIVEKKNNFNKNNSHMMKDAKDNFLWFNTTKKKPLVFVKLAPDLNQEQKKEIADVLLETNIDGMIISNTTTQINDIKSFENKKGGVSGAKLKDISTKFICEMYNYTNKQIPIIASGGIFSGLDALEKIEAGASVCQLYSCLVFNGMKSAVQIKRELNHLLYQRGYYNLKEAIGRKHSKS

Plasmodium falciparum [3] = assay: microbe, parasite or virus in culture; details: Dd2, 72 h
Description: Antiplasmodial activity against chloroquine-resistant Plasmodium falciparum Dd2 infected in erythrocytes assessed as parasite growth inhibition after 72 hrs by SYBR green 1 dye-based fluorometric analysis

Plasmodium falciparum [4] = assay: microbe, parasite or virus in culture; details: 3D7, 72 h
Description: Antiplasmodial activity against chloroquine-sensitive Plasmodium falciparum 3D7 infected in erythrocytes assessed as parasite growth inhibition after 72 hrs by SYBR green 1 dye-based fluorometric analysis

[5] = Oral bioavailability in Sprague-Dawley rat at 10 mg/kg; assay type: ADME, organism-based; details: in vivo
[6] = Tmax in Sprague-Dawley rat at 10 mg/kg, po; assay type: ADME, organism-based; set-up: dose 10 mg/kg, route oral; details: in vivo
[7] = Cmax in Sprague-Dawley rat at 10 mg/kg, po; assay type: ADME, organism-based; set-up: dose 10 mg/kg, route oral; details: in vivo
[8] = AUC (0 to last) in Sprague-Dawley rat at 10 mg/kg, po; assay type: ADME, organism-based; set-up: time 0 - last, dose 10 mg/kg, route oral; details: plasma
[9] = Half life in Sprague-Dawley rat at 10 mg/kg, po; assay type: ADME, organism-based; set-up: dose 10 mg/kg, route oral; details: in vivo
[10] = Volume of distribution in Sprague-Dawley rat at 1 mg/kg, iv; assay type: ADME, organism-based; set-up: dose 1 mg/kg, route intravenous; details: in vivo
[11] = Half life in Sprague-Dawley rat at 1 mg/kg, iv; assay type: ADME, organism-based; set-up: dose 1 mg/kg, route intravenous; details: in vivo
[12] = Clearance in Sprague-Dawley rat at 1 mg/kg, iv; assay type: ADME, organism-based; set-up: dose 1 mg/kg, route intravenous; details: in vivo

Sequence of Dihydroorotate dehydrogenase (quinone), mitochondrial (Q02127 whole entry): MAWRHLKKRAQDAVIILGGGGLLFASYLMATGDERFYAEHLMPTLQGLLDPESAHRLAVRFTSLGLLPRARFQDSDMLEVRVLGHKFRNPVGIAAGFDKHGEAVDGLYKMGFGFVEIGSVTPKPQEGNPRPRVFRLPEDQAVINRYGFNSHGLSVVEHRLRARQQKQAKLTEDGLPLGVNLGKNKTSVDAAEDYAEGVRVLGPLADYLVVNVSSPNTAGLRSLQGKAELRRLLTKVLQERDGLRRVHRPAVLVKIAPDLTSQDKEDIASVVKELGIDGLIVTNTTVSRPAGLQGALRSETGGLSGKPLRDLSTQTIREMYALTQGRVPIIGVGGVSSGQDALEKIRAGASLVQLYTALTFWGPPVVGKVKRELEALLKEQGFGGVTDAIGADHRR

Compound	IC50 [1] [µM]	IC50 [2] [µM]	IC50 (Plasmodium falciparum [3]) [µM]	IC50 (Plasmodium falciparum [4]) [µM]	bioavailability [5] [%]	Tmax [6] [min]	Cmax [7] [µg/mL]	AUC(0-t) [8] [µg·h/mL]	half-life [9] [min]	Vd [10] [L/kg]	half-life [11] [min]	clearance [12] [L/h/kg]
CCOC(=O)C1=C(Nc2ccccc2)SCC1=O	> 50	> 50	6.56	5.9								
CCOC(=O)C1=C(Nc2ccc(Cl)cc2)SCC1=O	> 50	1.11	> 20	> 20								
CCCCOC(=O)C1=C(Nc2ccc(C)c(C)c2)SCC1=O	> 50	2.35	0.889	0.745								
Cc1ccc(NC2=C(C(=O)OCC3CC3)C(=O)CS2)cc1C	> 50	4.16	2.63	3.53								
Cc1ccc(NC2=C(C(N)=O)C(=O)CS2)cc1C	> 50	> 50	> 20	> 20								
CCNC(=O)C1=C(Nc2ccc(C)c(C)c2)SCC1=O	> 50	39.5	6.27	8.47								
CCCNC(=O)C1=C(Nc2ccc(C)c(C)c2)SCC1=O	6.3	4.63	3.93	3.17								
CCCCNC(=O)C1=C(Nc2ccc(C)c(C)c2)SCC1=O	4.42	5.73	2.78	2.7								
Cc1ccc(NC2=C(C(=O)NC3CC3)C(=O)CS2)cc1C	4.11	19.1	5.53	6.62								
Cc1ccc(NC2=C(C(=O)NCC3CC3)C(=O)CS2)cc1C	1.84	3.66	3.5	3.34								
COC(=O)C1=C(Nc2ccc3ccccc3c2)SCC1=O	> 50	0.033	0.4	0.245								
CCCOC(=O)C1=C(Nc2ccc3ccccc3c2)SCC1=O	> 50	0.951	1.66	0.89								
CCCCOC(=O)C1=C(Nc2ccc3ccccc3c2)SCC1=O	> 50	35.6	5.23	8.38								
CCNC(=O)C1=C(Nc2ccc3ccccc3c2)SCC1=O	> 50	12.1	8.49	11.1								
CCCNC(=O)C1=C(Nc2ccc3ccccc3c2)SCC1=O	> 50	> 50	3.55	3.48								
CCCCNC(=O)C1=C(Nc2ccc3ccccc3c2)SCC1=O	> 50	> 50	4.03	5.83								
O=C1CSC(Nc2ccc3ccccc3c2)=C1C(=O)NC1CC1	> 50	13.2	7.94	10.2								
O=C1CSC(Nc2ccc3ccccc3c2)=C1C(=O)NCC1CC1	> 50	> 50	> 20	12.4								
CCOC(=O)C1=C(Nc2ccc3ccccc3c2)OCC1=O	> 50	0.006	0.018	0.015	40	17.4	0.609	0.791	45	1.91	15.6	5.08
CCOC(=O)C1=C(Nc2ccc(C)c(C)c2)OCC1=O	> 50	0.698	0.486	0.372								
CCOC(=O)C1=C(Nc2cnc3ccccc3c2)OCC1=O	> 50	0.079	0.517	0.492								
CCOC(=O)C1=C(Nc2ccc3c(c2)CCCC3)OCC1=O	> 50	0.018	0.076	0.057								
CCOC(=O)C1=C(Nc2ccc3c(c2)CCC3)OCC1=O	> 50	0.065	0.373	0.495								

Compound	IC50 [1] [µM]	IC50 [2] [µM]	IC50 (Plasmodium falciparum [3]) [µM]	IC50 (Plasmodium falciparum [4]) [µM]	bioavailability [5] [%]	Tmax [6] [min]	Cmax [7] [µg/mL]	AUC(0-t) [8] [µg·h/mL]	half-life [9] [min]	Vd [10] [L/kg]	half-life [11] [min]	clearance [12] [L/h/kg]
CCOC(=O)C1=C(Nc2ccc(S(F)(F)(F)(F)F)cc2)OCC1=O	> 50	0.168	1.06	0.68								
CCOC(=O)C1=C(Nc2ccc(C(F)(F)F)cc2)OCC1=O	> 50	0.142	0.867	0.607								
CCOC(=O)C1=C(Nc2ccc(C(F)(F)F)cc2)SCC1=O	> 50	0.367	1.04	0.946								
CCOC(=O)C1=C(Nc2ccc(S(F)(F)(F)(F)F)cc2)SCC1=O	> 50	0.559	0.697	0.307								
CCOC(=O)C1=C(Nc2ccc(C(C)(C)C)cc2)SCC1=O	> 50	0.227	0.767	1.53								
CCOC(=O)C1=C(Nc2ccc(Cl)c(C(F)(F)F)c2)SCC1=O	> 50	0.751	3.15	2.19								
CCOC(=O)C1=C(Nc2ccc(Br)c(C(F)(F)F)c2)SCC1=O	> 50	1.61	5.54	5.61								
CCOC(=O)C1=C(Nc2cccc(C(F)(F)F)c2)SCC1=O	> 50	> 50	13.6	14.4								
CCOC(=O)C1=C(Nc2cc(Cl)cc(Cl)c2)SCC1=O	> 50	1.19	6	4.03								
CCOC(=O)C1=C(Nc2ccc(C)c(C)c2)SCC1=O	> 50	0.256	1.32	1.99								
CCOC(=O)C1=C(Nc2ccc(C)c(F)c2)SCC1=O	> 50	0.536	3.73	5.05								
CCOC(=O)C1=C(Nc2ccc(Br)cc2C)SCC1=O	> 50	> 50	> 20	> 20								
CCOC(=O)C1=C(Nc2ccc3c(c2)CCCC3)SCC1=O	12	0.092	0.315	0.169								
CCOC(=O)C1=C(Nc2cnc3ccccc3c2)SCC1=O	> 50	0.351	0.29	0.253								
CCOC(=O)C1=C(Nc2ccc3ccccc3c2)SCC1=O	> 50	0.02	0.057	0.077	3.02	15	0.0255	0.0393	154	3.35	18	7.77
CCOC(=O)C1=C(Nc2ccc3c(c2)CCC3)SCC1=O	> 50	0.851	1.57	1.4								
CCOC(=O)C1=C(Nc2ccc3cc4ccccc4cc3c2)SCC1=O	> 50	0.197	1.13	0.688								
CCOC(=O)C1=C(Nc2ccc3c(c2)c2ccccc2n3CC)SCC1=O	> 50	0.392	1.51	1.23								
Cc1ccc(NC2=CC(=O)CS2)cc1C	> 50	11.4	2.5	1.91								
Cc1ccc(NC2=C(C(=O)O)C(=O)CS2)cc1C	> 50	> 50	> 20	> 20								
O=C(O)C1=C(Nc2ccc3ccccc3c2)SCC1=O	> 50	1.24	1.05	1.86								
COC(=O)C1=C(Nc2ccc(C)c(C)c2)SCC1=O	> 50	1.49	1.27	1.02								
CCCOC(=O)C1=C(Nc2ccc(C)c(C)c2)SCC1=O	11.6	4.03	1.69	2.11								
